Data reported in US7799829B2, “Acyloxyalkyl carbamate prodrugs of α-amino acids, methods of synthesis and use” (XenoPort, Inc., priority 2006, dated 2010).

Key:
[1] = Bioavailability of α-amino acid following intracolonic administration of prodrugs in rats (intravenous α-amino acid as reference); type: in vivo; conditions: for colonic bioavailability of 1-aminocyclopropanecarboxylic acid: intracolonic administration of prodrug, 1-aminocyclopropanecarboxylic acid released post absorption
Description: Rats are obtained commercially and were pre-cannulated in the both the ascending colon and the jugular vein. Animals were conscious at the time of the experiment. All animals were fasted overnight and until 4 hours after dosing of an α-amino acid prodrug. An α-amino acid or the corresponding prodrug was administered as a solution (in water) directly into the colon via the cannula at a dose equivalent to about 75 mg or other appropriate dose of an α-amino acid per kg body weight. Blood samples (0.3 mL) were obtained from the jugular cannula at intervals over 8 hours and were quenched immediately by addition of sodium metabisulfite to prevent oxidation of the α-amino acid. Blood was then further quenched with methanol/perchloric acid to prevent hydrolysis of the prodrug. Blood samples were analyzed as described.
300 μL of methanol was added to 1.5 mL tubes. Rat or monkey blood (100 μL) was collected at different times into the tubes and vortexed to mix. 90 μL of blood was quenched with 300 μL methanol. 10 μL of a standard stock solution containing an α-amino acid (0.04, 0.2, 1, 5, 25, and 100 μg/mL) and 20 μL of p-chlorophenylalanine eas added to 90 μL of blood to make up a final calibration standard (0.004, 0.02, 0.1, 0.5, 2.5, and 10 μg/mL). Samples were vortexed and centrifuged at 3400 rpm for 20 min. The supernatant was analyzed by LC/MS/MS.
An API 4000 LC/MS/MS spectrometer equipped with Agilent 1100 binary pumps and a CTC HTS-PAL autosampler and an Agilent Zorbax Eclipse XBD-C8, 4.6×150 mm, 3.5 μM column was used for the analysis. The mobile phase was 0.02% heptafluorobutyric acid in water (A) and 0.02% heptafluorobutyric acid in acetonitrile (B). The flow rate was 1.0 mL/min. The gradient condition was: 5% B for 2 min, then to 10% B for 1 min. Then the mobile phase was returned to 5% B for 1.1 min. A TurboIonSpray source was used in the API 4000. The analysis was done in either negative ion mode or positive ion mode as appropriate and the MRM transition for each analyte was optimized using a standard solution. 20 μL of the samples were injected. Non-compartmental analysis was performed using WinNonlin software (v.3.1 Professional Version, Pharsight Corporation, Mountain View, Calif.) on individual animal profiles. Summary statistics on major parameter estimates was performed for Cmax (peak observed concentration following dosing), Tmax (time to maximum concentration is the time at which the peak concentration was observed), AUC(0-t) (area under the plasma concentration-time curve from time zero to last collection time, estimated using the log-linear trapezoidal method), AUC(0-∞), (area under the plasma concentration time curve from time zero to infinity, estimated using the log-linear trapezoidal method to the last collection time with extrapolation to infinity), and t1/2,z (terminal half-life).
The oral or intracolonic bioavailability (F) of an α-amino acid was determined by comparing the area under the α-amino acid concentration vs. time curve (AUC) following oral or intracolonic administration of α-amino acid or prodrug thereof with the AUC of the α-amino acid concentration vs. time curve following intravenous administration of the α-amino acid on a dose normalized basis (e.g., % Fic=AUC (following intracolonic administration of an α-amino acid prodrug)/AUC (following intravenous administration of an equivalent dose of the corresponding α-amino acid)). […] In monkeys, following, colonic administration of α-amino acid prodrug 2, the bioavailability of 1-aminocyclopropanecarboxylic acid was determined to be about 4-fold greater than after colonic administration of 1-aminocyclopropanecarboxylic acid itself (at 20 mg-eq/kg).

| Compound | colonic bioavailability of 1-aminocyclopropanecarboxylic acid [1] | melting point [°C] | AUC(0-inf) ([1]; rat, whole blood, intravenous, dosed at 20 mg-eq/kg, used as reference for bioavailability calculations, read-out: AUCinf for the intravenously administered α-amino acid) [ng·h/mL] |
| --- | --- | --- | --- |
| Cc1ccccc1C(=O)OCCOC(=O)NC1(C(=O)O)CC1 [Compound 3, 1-{[(2-Methylphenylcarbonyloxy)ethoxy]carbonylamino}cyclopropanecarboxylic Acid] | substantial |  |  |
| O=C(Cc1ccccc1)OCCOC(=O)NC1(C(=O)O)CC1 |  | 142.1 to 145.6 |  |
| Cc1ccc(C(=O)OCCOC(=O)NC2(C(=O)O)CC2)cc1 [Compound 21, 1-{[(4-Methylphenylcarbonyloxy)ethoxy]carbonylamino}cyclopropanecarboxylic Acid] |  | 177.7 to 182.5 |  |
| O=C(NC1(C(=O)O)CC1)OCCOC(=O)c1ccccc1 [Compound 4, 1-[(Phenylcarbonyloxyethoxy)carbonylamino]cyclopropanecarboxylic Acid] | substantial | 173.8 to 175.8 |  |
| O=C(/C=C/c1ccccc1)OCCOC(=O)NC1(C(=O)O)CC1 [Compound 16, 1-{[((2E)-3-Phenylprop-2-enoyloxy)ethoxy]carbonylamino}cyclopropanecarboxylic Acid] | substantial | 169.3 to 172.2 |  |
| CC(OC(=O)NC1(C(=O)O)CC1)OC(=O)C(C)C (stereo not drawn) [Compound 1, 1-(1-Isobutyryloxy-ethoxycarbonylamino)-cyclopropanecarboxylic Acid] |  | 127 to 129.5 |  |
| CCCCCCC(=O)OCCOC(=O)NC1(C(=O)O)CC1 [Compound 13, 1-[(Heptanoyloxyethoxy)carbonylamino]cyclopropanecarboxylic Acid] |  | 112.6 to 113.2 |  |
| CC(C)C(=O)OC(OC(=O)NC1(C(=O)[O-])CC1)C(C)C.[Na+] (stereo not drawn) [Compound 23, 1-{[2-Methyl-1-(2-methylpropanoyloxy)propoxy]carbonylamino}Sodium Cyclopropanoate] | substantial |  |  |
| O=C(CCc1ccccc1)OCCOC(=O)NC1(C(=O)O)CC1 [Compound 17, 1-{[(3-Phenylpropanoyloxy)ethoxy]carbonylamino}cyclopropanecarboxylic Acid] |  | 132.9 to 134.4 |  |
| O=C(NC1(C(=O)O)CC1)OCCOC(=O)C1CCCCC1 [Compound 10, 1-[(Cyclohexylcarbonyloxyethoxy)carbonylamino]cyclopropanecarboxylic Acid] |  | 123.6 to 125.3 |  |
| COc1ccc(C(=O)OCCOC(=O)NC2(C(=O)O)CC2)cc1OC [Compound 14, 1-{[(3,4-Dimethoxyphenylcarbonyloxy)ethoxy]carbonylamino}cyclopropanecarboxylic Acid] |  | 171.8 to 173.6 |  |
| CC(C)C(OC(=O)NC1(C(=O)O)CC1)OC(=O)c1ccccc1 (stereo not drawn) [Compound 12, 1-[(2-Methyl-1-phenylcarbonyloxypropoxy)carbonylamino]cyclopropanecarboxylic Acid] | substantial |  |  |
| NC1(C(=O)O)CC1 [1-aminocyclopropanecarboxylic acid, reference compound] |  |  | 85900 |
| CCCCC(=O)OC(C)OC(=O)NC1(C(=O)O)CC1 (stereo not drawn) [Compound 8, 1-(1-Pentanoyloxy-ethoxycarbonylamino)-cyclopropanecarboxylic Acid] |  | 148 to 151.1 |  |
| CC(C)C(OC(=O)/C=C/c1ccccc1)OC(=O)NC1(C(=O)O)CC1 (stereo not drawn) [Compound 18, 1-{[1-((2E)-3-Phenylprop-2-enoyloxy)-2-methylpropoxy]carbonylamino}cyclopropanecarboxylic Acid] | substantial | 147.8 to 150.2 |  |
| CC(C)C(OC(=O)NC1(C(=O)O)CC1)OC(=O)C1CCCCC1 (stereo not drawn) [Compound 11, 1-[(1-Cyclohexylcarbonyloxy-2-methylpropoxy)carbonylamino]cyclopropanecarboxylic Acid] | substantial | 156 to 158.5 |  |
| CC(C)CC(=O)OC(C)OC(=O)NC1(C(=O)O)CC1 (stereo not drawn) [Compound 5, 1-[1-(3-Methyl-butyryloxy)-ethoxycarbonylamino]-cyclopropanecarboxylic Acid] |  | 116.6 to 119.1 |  |
| CC(C)C(=O)OC(OC(=O)NC1(C(=O)O)CC1)C(C)C (stereo not drawn) [Compound 2, 1-(1-Isobutyryloxy-2-methyl-propoxycarbonylamino)-cyclopropanecarboxylic Acid] | substantial | 127.4 to 129 |  |
| CCCC(=O)OC(C)OC(=O)NC1(C(=O)O)CC1 (stereo not drawn) [Compound 7, 1-(1-Butyryloxy-ethoxycarbonylamino)-cyclopropanecarboxylic Acid] |  | 90.4 to 93.4 |  |
